The values below come from patent US20090143391A1, “Aryl and heteroaryl fused imidazo [1,5-a] pyrazines as inhibitors of phosphodiesterase 10” (priority 2007, published 2009).

One data set addresses PDE10 from pig striatum (Sus scrofa, UniProt A0A287B941). As to the kind of experiment: Inhibition of PDE10 from pig striatum (Method A / Method B), [3H]-cAMP SPA. Type of data set: biochemical. As for the experimental part: Striatum from male Wistar rats (180-200 g), male hybrid pigs (150 kg) and male guinea pigs (CRL (HA), 500 g) respectively were collected and frozen at −70° C. […] The supernatant is called the cytosolic fraction and was removed and stored on ice. The pellet was resuspended in the same buffer, but containing 1% Triton and incubated for 45 min at 4° C. Both fractions were independently applied onto a 5 ml Hi Trap™ QHP column at the Äkta-FPLC. After washing the columns the bound PDE protein was eluted with an increasing sodium chloride gradient (0 mM-500 mM sodium chloride) in 50 mM Tris/Mg-buffer at 4° C. for the cytosolic fraction and in the presence of 1% Triton for the membrane fraction. […] The fractions with PDE10-activity were pooled and frozen in aliquots until use at −20° C. PDE10 activity was determined in a one step procedure in microtiter plates. The reaction mixture of 100 μl contained 50 mM Tris-HCl/5 mM MgCl2 buffer (pH=7.4) (Sigma, Deisenhofen, Germany; Merck, Darmstadt, Germany) 0.1 μM [^3H]-cAMP (Amersham, Buckinghamshire, UK) and the enzyme. Nonspecific activity was tested without the enzyme. The reaction was initiated by addition of the substrate solution and was carried out at 37 ° C. for 30 minutes. Enzymatic activity was stopped by addition of 25 μl YSi-SPA-beads (Amersham-Pharmacia). One hour later the mixture was measured in a liquid scintillation counter for microtiter plates (Microbeta Trilux). To pipette the incubation mixture a robot Biomek (Fa. Beckman) is used. […] The optimal amount of enzyme in the assay has been determined and optimised for each enzyme preparation and substrate separately before using the enzyme in compound testing. For determination of IC50 values the Hill-plot, 2-parameter-model, was used. […] Striatum from male hybrid pigs (150 kg) were collected and frozen at −70° C. […] The supernatant was removed and the pellet was resuspended in the same buffer, but containing 1% Triton and incubated for 45 min at 4° C. The membrane fraction was applied onto a 5 ml Hi Trap™ QHP column at the Äkta-FPLC. After washing the column the bound PDE protein was eluted with an increasing sodium chloride gradient (0 mM-500 mM sodium chloride) in 50 mM Tris/Mg-buffer at 4° C. in the presence of 1% Triton. […] The fractions with PDE10-activity were pooled and frozen in aliquots until use at −20° C. PDE10 activity was determined in a one step procedure in microtiterplates. The reaction mixture of 100 μl contained 50 mM Tris-HCl/5 mM MgCl2 buffer (pH=7.4) (Sigma, Deisenhofen, Germany; Merck, Darmstadt, Germany) 0.1 μM [3H]-cAMP (Amersham, Buckinghamshire, UK) and the enzyme. Nonspecific activity was tested without the enzyme. The reaction was initiated by addition of the substrate solution and was carried out at 37° C. for 30 minutes. Enzymatic activity was stopped by addition of 25 μl YSi-SPA-beads (Amersham-Pharmacia). One hour later the mixture was measured in a liquid scintillation counter for microtiterplates (Microbeta Trilux). To pipette the incubation mixture a robot Biomek (Fa. Beckman) is used. […] The optimal amount of enzyme in the assay has been determined and optimised for each enzyme preparation before using the enzyme in compound testing. For determination of IC50 values the Hill-plot, 2-parameter-model, was used.

The target of the next data set is T1, human recombinant PDE10A (Homo sapiens, UniProt Q9Y233).
T1 construct: made in house; host or cells: SF21 insect cells (baculovirus)
T1 sequence (Q9Y233 1-779 isoform Q9Y233-1): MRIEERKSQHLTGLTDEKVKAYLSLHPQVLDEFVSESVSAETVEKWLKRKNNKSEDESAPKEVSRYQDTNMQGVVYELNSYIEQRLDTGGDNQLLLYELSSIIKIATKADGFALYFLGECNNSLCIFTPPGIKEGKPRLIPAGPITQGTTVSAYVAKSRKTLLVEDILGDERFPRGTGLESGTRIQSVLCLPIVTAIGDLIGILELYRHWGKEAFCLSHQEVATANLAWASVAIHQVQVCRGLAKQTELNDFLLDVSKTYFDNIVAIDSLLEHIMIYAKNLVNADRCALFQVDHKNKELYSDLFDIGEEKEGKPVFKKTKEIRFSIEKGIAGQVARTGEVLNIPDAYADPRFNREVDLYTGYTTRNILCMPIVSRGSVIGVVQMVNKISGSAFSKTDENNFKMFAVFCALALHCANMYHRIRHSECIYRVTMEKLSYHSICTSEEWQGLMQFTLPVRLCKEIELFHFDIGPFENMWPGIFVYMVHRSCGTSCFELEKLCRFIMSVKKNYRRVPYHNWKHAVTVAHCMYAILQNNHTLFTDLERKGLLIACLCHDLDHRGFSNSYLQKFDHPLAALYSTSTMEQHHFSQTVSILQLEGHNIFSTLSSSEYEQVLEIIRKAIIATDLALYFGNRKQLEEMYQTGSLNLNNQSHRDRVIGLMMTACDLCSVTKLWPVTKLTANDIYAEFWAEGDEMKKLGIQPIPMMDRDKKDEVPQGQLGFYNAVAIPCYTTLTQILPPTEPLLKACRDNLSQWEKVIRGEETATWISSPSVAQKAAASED
The data set can be described thus: Inhibition of human recombinant PDE10A (Method B), [3H]-cAMP SPA. Type of data set: biochemical. The following applies: read-out: PDE10 inhibition IC50 PDE10A human. How it is done: The gene was than inserted into a baculovirus vector, ligated with the baculovirus DNA. The enzyme-protein was expressed in SF21-cells. The enzyme was isolated from these cells by harvesting the cells by a centrifugation at 200 g to collect the cells. The cells were resuspended in 50 mM Tris-HCl/5 mM MgCl2 buffer (pH=7.4) and lysed by a sonication of the cells. The cytosolic PDE10A was obtained by a centrifugation at 48000 g for 1 h in the supernatant and stored at −70 ° C. PDE10 activity was determined in a one step procedure in microtiterplates. […] Nonspecific activity was tested without the enzyme. The reaction was initiated by addition of the substrate solution and was carried out at 37° C. for 30 minutes. Enzymatic activity was stopped by addition of 25 μl YSi-SPA-beads (Amersham-Pharmacia). One hour later the mixture was measured in a liquid scintillation counter for microtiterplates (Microbeta Trilux). To pipette the incubation mixture a robot Biomek (Fa. Beckman) is used. […] For determination of IC50 values the Hill-plot, 2-parameter-model, was used.

Data set [1] has as its system apomorphine-induced stereotypies. The following applies: rats; cited from earlier work.
For data set [2], the system named is haloperidol-induced catalepsy. The following applies: rats; cited from earlier work.
The subject of data set [3] is dopamine concentration in rat brain. The following applies: cited from earlier work.

Molecule `Cc1nc(C2CCCCC2)n2c1c(NS(C)(=O)=O)nc1ccc(OCC3CC3)cc12` [Example 12, N-(1-Cyclohexyl-8-cyclopropylmethoxy-3-methyl-imidazo[1,5-a]quinoxalin-4-yl)-methanesulfonamide] displayed a melting point of 259 to 261 °C. Further, at PDE10 from pig striatum, the IC50 is not above 10 nM. Further, on human recombinant PDE10A, the IC50 lay in the range of 10 to 100 nM.
With `CCCc1nc(C)c2c(NS(C)(=O)=O)nc3ccc(F)cc3n12` [Example 4, N-(8-Fluoro-3-methyl-1-propyl-imidazo(1,5-a)quinoxalin-4-yl)-methanesulfonamide], the melting point was in the range of 277 to 280 °C. The half-maximal inhibitory concentration (IC50) at PDE10 from pig striatum lay in the range of 10 to 100 nM.
Taken in the same sequence, the figures for `CCc1nc(C)c2c(Cl)nc3ccc(N4CCCCC4)cc3n12` [Example B2, 4-Chloro-1-ethyl-3-methyl-8-piperidin-1-yl-imidazo(1,5-a)quinoxaline] were 160 to 163 °C and 10 to 100 nM.
The like results for `CCc1nc(C)c2c(Cl)nc3ccccc3n12` [Example B3] were, in that order, 125 to 128 °C and 10 to 100 nM.
In turn, `CCCc1nc(C)c2c(Cl)nc3ccc(OCC4CC4)cc3n12` [Example B12] had a melting point of 103 to 105 °C. Besides, the IC50 at human recombinant PDE10A was in the range of 10 to 100 nM.
Taken in the same sequence, the figures for `COc1ccc2nc(Cl)c3c(C)nc(C4CCCCC4)n3c2c1` [Example B11] were 212 to 215 °C and 10 to 100 nM.
`Cc1nc(C2CCCCC2)n2c1c(Cl)nc1ccc(F)cc12` [Example B7]: the melting point was in the range of 205 to 210 °C. This molecule also returned an IC50 against PDE10 from pig striatum of 10 to 100 nM.
As for `Cc1nc(-c2ccccc2Cl)n2c1c(NS(C)(=O)=O)nc1ccc(F)cc12` [Example 5, N-(1-(2-Chlorphenyl)-8-fluoro-3-methyl-imidazo(1,5-a)quinoxalin-4-yl)-methanesulfonamide], at PDE10 from pig striatum, the IC50 lay in the range of 10 to 100 nM.
`Cc1nc(C2CCCCC2)n2c1c(Cl)nc1ccc(OCC3CC3)cc12` [Example B13] registered a melting point of 165 to 168 °C. Further, the IC50 on human recombinant PDE10A was not below 100 nM.
The like results for `CCCc1nc(C)c2c(NS(C)(=O)=O)nc3ccc(OCC4CC4)cc3n12` [Example 11, N-(8-Cyclopropylmethoxy-3-methyl-1-propyl-imidazo[1,5-a]quinoxalin-4-yl)-methanesulfonamide] were, in that order, 240 to 241 °C and not above 10 nM.
At PDE10 from pig striatum, `CCc1nc(C)c2c(NS(C)(=O)=O)nc3ccccc3n12` [Example 2, N-(1-Ethyl-3-methyl-imidazo(1,5-a)quinoxalin-4-yl)-methanesulfonamide] had an IC50 not below 100 nM.
For `COc1ccc2nc(NS(C)(=O)=O)c3c(C)nc(C4CCCCC4)n3c2c1` [Example 10, N-(1-Cyclohexyl-8-methoxy-3-methyl-imidazo[1,5-a]quinoxalin-4-yl)-methanesulfonamide], the melting point is 287 to 288 °C. Besides, the IC50 at human recombinant PDE10A fell in the range of 10 to 100 nM.
With `COc1ccc2c(c1)nc(NS(C)(=O)=O)c1c(C)nc(-c3ccccc3Cl)n12` [Example 14, N-[1-(2-Chloro-phenyl)-7-methoxy-3-methyl-imidazo[1,5-a]quinoxalin-4-yl]-methanesulfonamide], the melting point was in the range of 277 to 278 °C. Besides, the IC50 against PDE10 from pig striatum is 10 to 100 nM. In addition, the IC50 at human recombinant PDE10A fell in the range of 10 to 100 nM.
The molecule `CCc1nc(C)c2c(NS(C)(=O)=O)nc3ccc(N4CCCCC4)cc3n12` [Example 7, N-[1-Ethyl-3-methyl-8-(piperidin-1-yl)-imidazo(1,5-a)quinoxalin-4-yl]-methanesulfonamide] displayed a melting point of 223 to 227 °C. The molecule further had an IC50 at PDE10 from pig striatum of 10 to 100 nM.
As for `Cc1nc(C2CCCCC2)n2c1c(NS(C)(=O)=O)nc1ccc(OCc3ccc4ccccc4n3)cc12` [Example 13, N-[1-Cyclohexyl-3-methyl-8-(quinolin-2-ylmethoxy)-imidazo[1,5-a]quinoxalin-4-yl]-methanesulfonamide], the melting point was in the range of 255 to 258 °C. Also, at PDE10 from pig striatum, the concentration for half-maximal inhibition (IC50) is not above 10 nM. Also, on human recombinant PDE10A, the IC50 is not above 10 nM.
Turning to `COc1ccc(Cc2nccc3cc(OC)c(OC)cc23)cc1OC` [Papaverine], the “effect on apomorphine-induced stereotypies” value in data set [1] is recorded as “reduces apomorphine-induced stereotypies”. In data set [2], the “effect on haloperidol-induced catalepsy” value is “increases haloperidol-induced catalepsy”. In data set [3], the “effect on dopamine concentration in rat brain” value is “reducing dopamine concentration”.
Turning to `CCCc1nc(C)c2c(Cl)nc3cc(OC)ccc3n12` [Example B15], the melting point lay in the range of 154 to 159 °C. For the same molecule, at human recombinant PDE10A, the IC50 is 10 to 100 nM.
For `COc1ccc2nc(C#N)c3c(C)nc(C4CCCCC4)n3c2c1` [Example 8, 1-Cyclohexyl-8-methoxy-3-methyl-imidazo[1,5-a]quinoxaline-4-carbonitrile], the melting point is 244 to 248 °C. This molecule also showed an IC50 against PDE10 from pig striatum of 10 to 100 nM. Moreover, on human recombinant PDE10A, the IC50 was not below 100 nM.
Turning to `CCCc1nc(C)c2c(Cl)nc3ccc(F)cc3n12` [Example B6, 4-Chloro-8-fluoro-3-methyl-1-propyl-imidazo(1,5-a)quinoxaline], the melting point was in the range of 133 to 135 °C. Further, the IC50 on PDE10 from pig striatum was in the range of 10 to 100 nM.
Turning to `CCCc1nc(C)c2c(NS(C)(=O)=O)nc3ccc(OC)cc3n12` [Example 9, N-(8-Methoxy-3-methyl-1-propyl-imidazo[1,5-a]quinoxalin-4-yl)-methanesulfonamide], the melting point lay within 234 to 237 °C. Further, the IC50 on human recombinant PDE10A was 10 to 100 nM.
Molecule `CCCc1nc(C)c2c(NS(C)(=O)=O)nc3cc(OC)ccc3n12` [Example 15, N-(7-Methoxy-3-methyl-1-propyl-imidazo[1,5-a]quinoxalin-4-yl)-methanesulfonamide] yielded a melting point of 222 to 226 °C. At PDE10 from pig striatum, this molecule showed an IC50 of 10 to 100 nM. Besides, the IC50 at human recombinant PDE10A was in the range of 10 to 100 nM.
The molecule `CCCc1nc(C)c2c(C#N)nc3ccc(F)cc3n12` [Example 1, 8-Fluoro-3-methyl-1-propyl-imidazo(1,5-a)quinoxaline-4-carbonitrile] returned an IC50 against PDE10 from pig striatum of 10 to 100 nM.
As to `CCc1nc(C)c2c(NS(C)(=O)=O)nc3ccc(F)cc3n12` [Example 3, N-(1-Ethyl-8-fluoro-3-methyl-imidazo(1,5-a)quinoxalin-4-yl)-methanesulfonamide], the melting point was in the range of 268 to 269 °C. At PDE10 from pig striatum, the IC50 was not below 100 nM.
The like results for `Cc1nc(C2CCCCC2)n2c1c(Cl)nc1ccc(Cl)cc12` [Example B9] were, in that order, 244 to 248 °C and not below 100 nM.
Taken in the same sequence, the figures for `Cc1nc(C2CCCCC2)n2c1c(NS(C)(=O)=O)nc1ccc(F)cc12` [Example 6, N-(1-Cyclohexyl-8-fluoro-3-methyl-imidazo(1,5-a)quinoxalin-4-yl)-methanesulfonamide] were 291 to 293 °C and 10 to 100 nM.
